± gives the standard deviation of the averaged measurements.
Experiments:
[1] = system: S1507-2; assay: drug sensitivity score (DSS, CellTox-Green cytotoxicity, 72 h) (DSS (dimensionless)); higher = more cytotoxic; extreme values may be limits of the assay
How it was run: (§1)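 For 72 h at 37 °C, MPNST cell lines and primary human Schwann cells were exposed in 384-well plates to five 10-fold compound dilutions. CellTox-Green, added before seeding at a final 1:1000 dilution, gave fluorescence from DNA released by disrupted cells. Signals were scaled to vehicle and positive-control wells, cultures failing plate quality control were left out, and four-parameter logistic fits were applied. Relative IC50 and drug sensitivity score were derived from the fits, with IC50 censored at the top concentration.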

[2] = system: ST8814; assay: as above
How it was run: as §1

[3] = system: STS26T; assay: as above
How it was run: as §1

[4] = system: HS-PSS; assay: as above
How it was run: as §1

[5] = system: HSC1 (primary human Schwann cells); assay: as above
How it was run: as §1

[6] = system: HSC2 (primary human Schwann cells); assay: as above
How it was run: as §1

[7] = system: S1507-2; assay: % inhibition of CellTiter-Glo viability at highest tested concentration (72 h), relative to DMSO and benzethonium chloride controls; higher = more inhibition
How it was run: (§2)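 MPNST cell lines and primary human Schwann cells were seeded at 750–1000 cells per well into 384-well plates preprinted with each compound at five concentrations in 10-fold steps, then incubated 72 h at 37 °C, 5% CO2. CellTiter-Glo ATP luminescence gave viability, scaled between vehicle and positive-control wells, with duplicates averaged where present. Curves were fitted with a four-parameter logistic model. Percent inhibition refers to the top concentration, while drug sensitivity score and relative IC50, censored at the top concentration, come from these fits.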

[8] = system: S462; assay: as above
How it was run: as §2

[9] = system: HS-Sch-2; assay: as above
How it was run: as §2

[10] = system: ST8814; assay: as above
How it was run: as §2

[11] = system: YST-1; assay: as above
How it was run: as §2

[12] = system: STS26T; assay: as above
How it was run: as §2

[13] = system: HS-PSS; assay: as above
How it was run: as §2

[14] = system: HSC1 (primary human Schwann cells); assay: as above
How it was run: as §2

[15] = system: HSC2 (primary human Schwann cells); assay: as above
How it was run: as §2

[16] = system: S1507-2; assay: drug sensitivity score (DSS, CellTiter-Glo viability, 72 h) (DSS (dimensionless)); higher = more sensitive; extreme values may be limits of the assay
How it was run: as §2

[17] = system: S462; assay: as above
How it was run: as §2

[18] = system: HS-Sch-2; assay: as above
How it was run: as §2

[19] = system: ST8814; assay: as above
How it was run: as §2

[20] = system: YST-1; assay: as above
How it was run: as §2

[21] = system: STS26T; assay: as above
How it was run: as §2

[22] = system: HS-PSS; assay: as above
How it was run: as §2

[23] = system: HSC1 (primary human Schwann cells); assay: as above
How it was run: as §2

[24] = system: HSC2 (primary human Schwann cells); assay: as above
How it was run: as §2

Row | Compound | drug sensitivity score [1] | drug sensitivity score [2] | drug sensitivity score [3] | drug sensitivity score [4] | drug sensitivity score [5] | drug sensitivity score [6] | % inhibition [7] [%] | % inhibition [8] [%] | % inhibition [9] [%] | % inhibition [10] [%] | % inhibition [11] [%] | % inhibition [12] [%] | % inhibition [13] [%] | % inhibition [14] [%] | % inhibition [15] [%] | drug sensitivity score [16] | drug sensitivity score [17] | drug sensitivity score [18] | drug sensitivity score [19] | drug sensitivity score [20] | drug sensitivity score [21] | drug sensitivity score [22] | drug sensitivity score [23] | drug sensitivity score [24]
1 | C[C@H]1C[C@@H]2[C@H]([C@@H](O)C[C@@]3(C)[C@H]2CC[C@]3(O)C(=O)CO)[C@@]2(C)C=CC(=O)C=C12 [Methylprednisolone] (max concentration tested 10000 nM) | 0 | 0 | 0 | 0 | 0 | 0 | 17.3 ± 7 | 4.77 ± 4.3 | 7.62 | 22.4 | 19.3 | 4.35 | 3.22 | 7.99 | 3.94 | 3.26 ± 4.4 | 0 | 0.61 | 4.82 | 0.96 | 0 | 0 | 0 | 0
2 | CO[C@H]1[C@@H](N(C)C(=O)c2ccccc2)C[C@@H]2O[C@@]1(C)n1c3ccccc3c3c4c(c5c6ccccc6n2c5c31)C(=O)NC4 [Midostaurin] (max concentration tested 10000 nM) | 6.96 ± 1.9 | 11.1 | 13.4 | 0 | 11.9 | 19.4 | 90.3 ± 1 | 71.9 ± 4.6 | 73.6 | 85.2 | 52.8 | 71.8 | 56.4 | 93.2 | 95.5 | 16.5 ± 1.1 | 10.7 ± 0.49 | 12.2 | 13.9 | 11.4 | 11.5 | 9.08 | 21.6 | 20.7
3 | CO[C@@]12[C@H](COC(N)=O)C3=C(C(=O)C(C)=C(N)C3=O)N1C[C@@H]1N[C@@H]12 [Mitomycin C] (max concentration tested 10000 nM) | 2.38 ± 3 | 5.46 | 1.57 | 0 | 2.29 | 2.91 | 69.5 ± 1.9 | 68.5 ± 1.9 | 28.5 | 77.4 | 55.7 | 50.2 | 16.2 | 52.1 | 51.3 | 3.18 ± 0.05 | 3.23 ± 0.21 | 0.9 | 3.61 | 4.11 | 2.31 | 0.31 | 2.63 | 2.34
4 | Clc1ccc(C(c2ccccc2Cl)C(Cl)Cl)cc1 (configuration not stated) [Mitotane] (max concentration tested 10000 nM) | 3.77 ± 5.3 | 0 | 0 | 0 | 0 | 0 | 2.14 ± 4.9 | 2.7 ± 7.9 | 1.46 | 6.22 | 0.23 | 4.66 | -3.05 | 4.91 | 1.58 | 0 | 0 | 0 | 0 | 0 | 0 | 0 | 0 | 0
5 | O=C1c2c(O)ccc(O)c2C(=O)c2c(NCCNCCO)ccc(NCCNCCO)c21 [Mitoxantrone] (max concentration tested 1000 nM) | 0 | 1.65 | 1.34 | 0 | 0 | 0 | 43.44 ± 0.12 | 72.66 ± 0.27 | 42.7 | 46.7 | 77 | 53.5 | 28.8 | 37.8 | 43 | 2.8 ± 1.2 | 5.57 ± 0.84 | 4.38 | 2.63 | 10.7 | 2.45 | 1.94 | 2.89 | 5.2
6 | Nc1ccccc1NC(=O)c1ccc(CNc2nccc(-c3cccnc3)n2)cc1 [Mocetinostat] (max concentration tested 10000 nM) | 5.36 ± 2.5 | 5.01 | 6.23 | 4.26 | 4.7 | 6.39 | 95.338 ± 0.088 | 94.19 ± 0.4 | 101 | 93.5 | 100 | 87.5 | 88 | 83.9 | 87.2 | 8.06 ± 0.65 | 15.4 ± 0.54 | 9.89 | 8.59 | 15 | 8.68 | 6.61 | 9.63 | 10.5
7 | N#CCNC(=O)c1ccc(-c2ccnc(Nc3ccc(N4CCOCC4)cc3)n2)cc1 [Momelotinib] (max concentration tested 10000 nM) | 0.683 ± 0.4 | 0 | 0 | 0 | 0.946 | 1.87 | 67.1 ± 11 | 74.7 ± 4.7 | 60.3 | 41.6 | 55.4 | 58.8 | 49.2 | 76.8 | 81.2 | 3.09 ± 0.61 | 4.7 ± 0.25 | 5.45 | 3.16 | 5.7 | 3.24 | 3.21 | 7.64 | 8.06
8 | CC1(C)CNc2cc(NC(=O)c3cccnc3NCc3ccncc3)ccc21 [Motesanib] (max concentration tested 10000 nM) | 0.104 ± 0.15 | 0 | 0 | 0 | 0 | 0 | 6.17 ± 1.9 | 4.64 ± 6.4 | 7.18 | -4.55 | 15 | 4.89 | 5.39 | 9.4 | 15.5 | 0 | 0 | 0 | 0 | 0.25 | 0 | 0 | 0 | 0.232
9 | CCN1CCN(c2ccc(Nc3cc(N(C)C(=O)Nc4c(Cl)c(OC)cc(OC)c4Cl)ncn3)cc2)CC1 [NVP-BGJ398] (max concentration tested 1000 nM) | 0.143 ± 0.2 | 0 | 0 | 0 | 0 | 0 | 6.59 ± 6.9 | 0.872 ± 0.61 | 0.34 | 14.3 | 2.47 | -2.71 | 9.97 | 4.11 | 5.81 | 0.00445 ± 0.0063 | 0 | 0 | 0.135 | 0 | 0 | 0 | 0 | 0
10 | CC1(C)CCC(c2ccc(Cl)cc2)=C(CN2CCN(c3ccc(C(=O)NS(=O)(=O)c4ccc(N[C@H](CCN5CCOCC5)CSc5ccccc5)c(S(=O)(=O)C(F)(F)F)c4)cc3)CC2)C1 [Navitoclax] (max concentration tested 10000 nM) | 16 ± 1.1 | 5.52 | 3.15 | 0 | 5.42 | 11.8 | 47.8 ± 0.54 | 20.7 ± 5.9 | 32.7 | 24.4 | 34.2 | 11.3 | 3.02 | 23.8 | 53.1 | 6.14 ± 0.43 | 0.978 ± 0.8 | 3.94 | 0.561 | 4.22 | 0.0007 | 0 | 2.32 | 5.16
11 | COc1nc(N)nc2c1ncn2[C@@H]1O[C@H](CO)[C@@H](O)[C@@H]1O [Nelarabine] (max concentration tested 10000 nM) | 3.71 ± 5.2 | 0 | 0 | 0 | 0 | 0.0142 | 7.84 ± 7.8 | 8.35 ± 0.2 | 6.44 | -1.03 | -10.9 | 6.48 | -6.14 | 1.53 | 4.25 | 1.62 ± 2.3 | 0 | 0 | 0 | 0 | 0 | 0 | 0 | 0
12 | CCOc1cc2ncc(C#N)c(Nc3ccc(OCc4ccccn4)c(Cl)c3)c2cc1NC(=O)/C=C/CN(C)C [Neratinib] (max concentration tested 1000 nM) | 0 | 0 | 0 | 0 | 0 | 0 | 49.1 ± 15 | 64.8 ± 7.9 | 65.3 | 40.5 | 46.7 | 38.6 | 65.7 | 70.6 | 75.8 | 4 ± 1.6 | 5.12 ± 0.93 | 5.51 | 3.74 | 2.34 | 3.09 | 6.05 | 4.77 | 5.85
13 | Cc1cn(-c2cc(NC(=O)c3ccc(C)c(Nc4nccc(-c5cccnc5)n4)c3)cc(C(F)(F)F)c2)cn1 [Nilotinib] (max concentration tested 10000 nM) | 0 | 0 | 0 | 0 | 0 | 0.117 | 2.99 ± 0.13 | -3.63 ± 4.4 | 15.4 | -12.2 | 20.6 | -1.55 | 23.5 | 0.687 | 2.6 | 0 | 0 | 3.88 | 0 | 1.13 | 0 | 1.65 | 0 | 0
